Key:
[1] = Light absorbing properties (UV/VIS/NIR spectrometer); type: physicochemical; conditions: measured up to a content of 0.05% dye
Protocol: Light absorption was measured in 0.05% solutions, with BSS plus as a solvent medium. Light absorption was measured instantly after preparation of a stock solution of the dye using a UV/VIS/NIR Spectrometer (Lambda 900, Perkin Elmer) between 200 and 1000 nm.

ARPE-19 cells [2] = test: MTT assay, ARPE-19 cells; conditions: 0.2% and 0.02% dye, 10 minutes exposure, compared to BSS plus control
Protocol: ARPE-19 cells, a human retinal pigment epithelial cell line (42), were purchased from ATCC (Manassas, Va., USA) and grown in a 1:1 mixture of Dulbecco's modified Eagles medium and Ham's F12 medium (DMEM/Ham's F12, Biochrom), supplemented with 10% FCS (Biochrom).
For exposure of dyes RPE and ARPE-19 cells were kept for 24 hours under serum free conditions. After washing cells three times with PBS, cells were incubated for 10 minutes with 300 μl of BSS plus containing 0.2% or 0.02% of dye, respectively. […] The dye was then removed by carefully rinsing cells with BSS plus three times. After 24 hours incubation with serum containing media the cell proliferation assay was performed. RPE cells (p3-6) were seeded in 24-well plates and exposed to two concentrations (0.2 and 0.02%) of dyes. BSS plus alone and H2O2, (200 μL/mL) served as controls.
The tetrazolium dye-reduction assay (MTT; 3-[4,5-dimethylthiazol-2-yl]-2,5-diphenyl tetrazolium bromide;) was used to determine cell survival rate. […] The medium was removed, cells were washed with PBS, and 1000 μL/well MTT solution (1.5 mL MTT stock, 2 mg/mL in PBS, plus 28.5 mL DMEM) was added. RPE cells were incubated at 37° C. for 1 hour. The formazan crystals that formed were dissolved by the addition of dimethyl sulfoxide (DMSO; 1000 μL/well). Absorption was measured by a scanning multiwell spectrophotometer at 550 nm (Molecular Probes, Garching, Germany). […] Experiments were performed in triplicate and repeated three times. RPE and ARPE-19 cells of the same passage incubated with BSS without addition of dyes served as control. Statistical comparison between dye concentrations was performed with SPSS (Mann-Whitney-U-Test).
The MTT test as performed in this study is a well established test for the assessment of cell viability, but relies on calorimetric measurement of a blue (550 nm) formazan reaction product. This color overlaps with the absorption spectra of some of the dyes tested. […] Cell monolayers were treated with dyes as per the experiments described above but absorbance readings were performed without prior application of MTT. […]

ARPE-19 cells [3] = test: Life-dead assay (propidium iodide / Hoechst 33342), ARPE-19 cells; type: cell-based; conditions: ARPE-19 cells, 0.2% and 0.02% dye, 24 hours after treatment, compared to BSS plus
Protocol: Confluent RPE and ARPE-19 cells were prepared and treated as described above. Cell viability was quantified based on a two-color fluorescence assay in which the nuclei of nonviable cells appear red because of staining by the membrane-impermeable dye propidium iodide (Sigma), whereas the nuclei of all cells were stained with the membrane-permeable dye Hoechst 33342 (Intergen, Purchase, N.Y.). […] For evaluation of cell viability, cells were washed in PBS and incubated with 2.0 μg/mL propidium iodide and 1.0 μg/mL Hoechst 33342 for 20 minutes at 37° C. Subsequently, cells were analyzed with an epifluorescence microscope (Axioskop; Zeiss, Göttingen, Germany). The labeled nuclei were then counted in fluorescence photomicrographs, and dead cells were expressed as a percentage of total nuclei in the field. The data are based on counts from three experiments performed in duplicate wells, with three to five documented representative fields per well.

lens capsule = test: Staining of the lens capsule in enucleated porcine eyes; conditions: injected into air-filled anterior chamber, removed after one minute; clear porcine lens as background
Protocol: Additionally, the staining characteristics of the lens capsule in enucleated porcine eyes with a postmortem time of nine hours were evaluated. The dyes were injected into the air-filled anterior chamber and removed by irrigation after one minute. Then, the cornea was removed and a capsulorhexis was performed with a bent needle. All procedures were taped on video.

anterior lens capsule = conditions: previous experimental studies; cited from earlier work
vitreous = test: Vitrectomy for retinal detachment (Example 3); type: in vivo, humans
Source text: This study was approved by the local ethics committee and Institutional Review Board (IRB) and written informed consent was obtained from all patients. Six consecutive patients with idiopathic macular hole, 3 males and 3 females with a mean age of 68 were included. Holes were graded as stage 2 (n=3), stage 3 (n=2) and stage 4 (n=1). The dye was also used in four patients with retinal detachments, 2 females and 2 males with a mean age of 57 years.
Pre- and postoperatively, all patients underwent a complete clinical examination including measurement of best corrected visual acuity (VA), slit lamp examination, tonometry, and funduscopy using a 78 diopter lens (Volk Optical, Mentor, Ohio, USA). In macular hole patients, we additionally performed optical coherence tomography (OCT) (Stratus-OCT, Carl Zeiss Meditec, Jena, Germany), Goldmann perimetry, multifocal electroretinogram (ERG) and fundus photographs. Patients were seen one day before surgery and then in six weeks intervals. Postoperatively, ERG and Goldmann perimetry were performed at the six weeks follow-up visit and were not repeated if unremarkable. […]
The dye was applied as follows: During pars plana vitrectomy for a macular hole a fluid air-exchange was performed prior to dye injection to achieve a maximum dye concentration on the retinal surface. […] The staining characteristics were then evaluated by the surgeon.

O=S1(=O)OC(c2cc(Br)c(O)c(Br)c2)(c2cc(Br)c(O)c(Br)c2)c2ccccc21 [Bromophenol blue, Bromophenole blue]
position of the long wavelength maximum, influence of dye concentration [1]: not influenced by the dye concentration | cell survival of ARPE-19 cells (MTT) (ARPE-19 cells [2]): no significant impact on cell survival | cell viability, nuclei of nonviable cells labeled with propidium iodide (ARPE-19 cells [3]): did not affect cell survival | staining of the lens capsule in porcine eyes (lens capsule): stained well | safety for intraocular application (anterior lens capsule): safe for intraocular application | staining of the anterior lens capsule (anterior lens capsule): strongly stain | identification of peripheral vitreous remnants at the vitreous base and retinal breaks (vitreous; 0.2%, injected onto PFCL bubble): helped to identify peripheral remnants of vitreous | reattachment of the retina (vitreous; in vivo): could be achieved in all cases
